Legend:
[1] = biological target: T1, Voltage-gated inwardly rectifying potassium channel KCNH2 (Homo sapiens, UniProt Q12809); test: Inhibition of human ERG expressed in CHO cells by patch clamp assay; type: cell-based
[2] = biological target: T2, Melanin-concentrating hormone receptor 1 (Homo sapiens, UniProt Q99705); test: Displacement of [125I]MCH from human MCHR1 expressed in HEK293 cells; type: cell-based
[3] = Dissociation constant, pKa by pressure assisted capillary electrophoresis; type: physicochemical
[4] = biological target: T2, Melanin-concentrating hormone receptor 1; test: Antagonist activity at human MCHR1 expressed in HEK293 cells assessed as [35S]GTPgammaS accumulation; type: functional, cell-based
Mus musculus = test: Antiobesity activity in DIO mouse model assessed as reduction in weight at 50 umol/kg, po once daily after 21 days; type: functional; set-up: scale not given: the % may be the effect or the level left
[5] = biological target: T1, Voltage-gated inwardly rectifying potassium channel KCNH2; test: Inhibition of human ERG activation expressed in CHO cells by rubidium efflux assay; type: cell-based
[6] = biological target: Melanin-concentrating hormone receptor 2 (Homo sapiens, UniProt Q969V1); test: Displacement of [125I]MCH from human MCHR2 expressed in CHO cells; type: cell-based
Melanin-concentrating hormone receptor 2, sequence (Q969V1 whole entry): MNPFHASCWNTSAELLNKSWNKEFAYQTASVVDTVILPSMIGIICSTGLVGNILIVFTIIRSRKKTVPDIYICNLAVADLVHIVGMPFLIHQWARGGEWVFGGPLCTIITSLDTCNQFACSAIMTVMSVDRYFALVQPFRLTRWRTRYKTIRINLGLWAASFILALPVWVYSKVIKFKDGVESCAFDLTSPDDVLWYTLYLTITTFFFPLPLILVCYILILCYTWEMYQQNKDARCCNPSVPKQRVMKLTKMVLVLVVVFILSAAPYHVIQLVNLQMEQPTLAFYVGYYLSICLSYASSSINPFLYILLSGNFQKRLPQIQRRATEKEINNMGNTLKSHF

[7] = biological target: Sodium channel protein type 5 subunit alpha (Homo sapiens, UniProt Q14524); test: Inhibition of NaV1.5 sodium channel expressed in CHO cells by patch clamp assay; type: cell-based
Sodium channel protein type 5 subunit alpha, sequence (Q14524 whole entry): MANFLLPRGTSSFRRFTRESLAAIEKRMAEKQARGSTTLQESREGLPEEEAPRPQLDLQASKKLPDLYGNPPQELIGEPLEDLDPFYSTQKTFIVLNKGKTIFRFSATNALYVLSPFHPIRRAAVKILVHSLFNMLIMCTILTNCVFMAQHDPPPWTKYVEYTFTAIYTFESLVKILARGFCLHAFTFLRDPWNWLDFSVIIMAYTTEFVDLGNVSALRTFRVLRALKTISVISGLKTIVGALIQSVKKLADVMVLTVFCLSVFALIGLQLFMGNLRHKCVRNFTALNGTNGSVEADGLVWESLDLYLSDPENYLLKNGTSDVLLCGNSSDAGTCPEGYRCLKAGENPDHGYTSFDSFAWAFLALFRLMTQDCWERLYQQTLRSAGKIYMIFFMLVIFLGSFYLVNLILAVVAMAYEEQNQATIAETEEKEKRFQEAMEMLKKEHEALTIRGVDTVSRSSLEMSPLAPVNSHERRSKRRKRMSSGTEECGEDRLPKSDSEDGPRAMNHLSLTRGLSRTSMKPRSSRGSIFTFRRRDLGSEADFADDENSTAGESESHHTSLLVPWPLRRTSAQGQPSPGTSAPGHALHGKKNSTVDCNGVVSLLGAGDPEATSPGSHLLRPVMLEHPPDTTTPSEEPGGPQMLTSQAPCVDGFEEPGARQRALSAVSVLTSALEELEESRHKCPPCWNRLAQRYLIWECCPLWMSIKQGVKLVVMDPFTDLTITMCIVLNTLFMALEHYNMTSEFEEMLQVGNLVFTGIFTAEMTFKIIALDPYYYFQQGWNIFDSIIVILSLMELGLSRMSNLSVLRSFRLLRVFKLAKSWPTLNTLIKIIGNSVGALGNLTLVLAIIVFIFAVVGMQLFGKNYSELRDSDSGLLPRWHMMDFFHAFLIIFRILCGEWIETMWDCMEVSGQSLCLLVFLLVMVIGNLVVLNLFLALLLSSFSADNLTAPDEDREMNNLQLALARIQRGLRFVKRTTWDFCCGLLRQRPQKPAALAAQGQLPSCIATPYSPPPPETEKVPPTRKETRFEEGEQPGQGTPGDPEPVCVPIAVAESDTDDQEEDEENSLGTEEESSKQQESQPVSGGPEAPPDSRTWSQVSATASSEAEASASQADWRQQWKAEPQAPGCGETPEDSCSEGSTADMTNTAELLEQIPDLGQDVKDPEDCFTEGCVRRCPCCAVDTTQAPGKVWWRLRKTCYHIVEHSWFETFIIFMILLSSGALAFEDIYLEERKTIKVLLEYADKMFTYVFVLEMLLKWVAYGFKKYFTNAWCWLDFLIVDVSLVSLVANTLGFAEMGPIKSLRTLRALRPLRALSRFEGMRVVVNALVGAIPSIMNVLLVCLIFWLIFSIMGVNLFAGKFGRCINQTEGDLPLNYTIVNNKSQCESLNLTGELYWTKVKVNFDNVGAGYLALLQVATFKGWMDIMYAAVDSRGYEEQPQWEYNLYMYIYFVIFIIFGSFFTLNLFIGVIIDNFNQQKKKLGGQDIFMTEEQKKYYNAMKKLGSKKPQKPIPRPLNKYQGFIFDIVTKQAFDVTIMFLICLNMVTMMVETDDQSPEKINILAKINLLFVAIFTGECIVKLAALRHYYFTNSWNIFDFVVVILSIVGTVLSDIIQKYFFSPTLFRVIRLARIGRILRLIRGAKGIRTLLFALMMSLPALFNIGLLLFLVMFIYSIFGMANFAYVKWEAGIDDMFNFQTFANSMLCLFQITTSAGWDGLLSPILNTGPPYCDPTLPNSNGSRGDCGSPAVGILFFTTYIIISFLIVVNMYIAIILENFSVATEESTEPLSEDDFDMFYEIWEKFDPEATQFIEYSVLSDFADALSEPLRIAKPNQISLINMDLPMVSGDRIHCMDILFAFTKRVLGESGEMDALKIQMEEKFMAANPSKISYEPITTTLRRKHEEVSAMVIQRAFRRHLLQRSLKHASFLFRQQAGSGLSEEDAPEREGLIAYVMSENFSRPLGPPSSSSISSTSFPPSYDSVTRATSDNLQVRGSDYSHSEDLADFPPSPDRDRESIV

Liver microsomes = test: Intrinsic clearance in human liver microsomes; type: ADME, Microsome

T2 sequence (Q99705 whole entry): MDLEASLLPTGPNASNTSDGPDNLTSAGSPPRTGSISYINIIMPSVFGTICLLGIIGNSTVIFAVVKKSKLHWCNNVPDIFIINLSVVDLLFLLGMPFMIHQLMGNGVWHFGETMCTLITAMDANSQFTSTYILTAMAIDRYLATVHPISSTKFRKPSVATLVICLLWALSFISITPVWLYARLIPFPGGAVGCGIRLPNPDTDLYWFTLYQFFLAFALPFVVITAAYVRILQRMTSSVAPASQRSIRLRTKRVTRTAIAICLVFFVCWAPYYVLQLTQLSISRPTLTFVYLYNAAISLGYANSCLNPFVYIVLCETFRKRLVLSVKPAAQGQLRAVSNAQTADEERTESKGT
T1 sequence (Q12809 whole entry): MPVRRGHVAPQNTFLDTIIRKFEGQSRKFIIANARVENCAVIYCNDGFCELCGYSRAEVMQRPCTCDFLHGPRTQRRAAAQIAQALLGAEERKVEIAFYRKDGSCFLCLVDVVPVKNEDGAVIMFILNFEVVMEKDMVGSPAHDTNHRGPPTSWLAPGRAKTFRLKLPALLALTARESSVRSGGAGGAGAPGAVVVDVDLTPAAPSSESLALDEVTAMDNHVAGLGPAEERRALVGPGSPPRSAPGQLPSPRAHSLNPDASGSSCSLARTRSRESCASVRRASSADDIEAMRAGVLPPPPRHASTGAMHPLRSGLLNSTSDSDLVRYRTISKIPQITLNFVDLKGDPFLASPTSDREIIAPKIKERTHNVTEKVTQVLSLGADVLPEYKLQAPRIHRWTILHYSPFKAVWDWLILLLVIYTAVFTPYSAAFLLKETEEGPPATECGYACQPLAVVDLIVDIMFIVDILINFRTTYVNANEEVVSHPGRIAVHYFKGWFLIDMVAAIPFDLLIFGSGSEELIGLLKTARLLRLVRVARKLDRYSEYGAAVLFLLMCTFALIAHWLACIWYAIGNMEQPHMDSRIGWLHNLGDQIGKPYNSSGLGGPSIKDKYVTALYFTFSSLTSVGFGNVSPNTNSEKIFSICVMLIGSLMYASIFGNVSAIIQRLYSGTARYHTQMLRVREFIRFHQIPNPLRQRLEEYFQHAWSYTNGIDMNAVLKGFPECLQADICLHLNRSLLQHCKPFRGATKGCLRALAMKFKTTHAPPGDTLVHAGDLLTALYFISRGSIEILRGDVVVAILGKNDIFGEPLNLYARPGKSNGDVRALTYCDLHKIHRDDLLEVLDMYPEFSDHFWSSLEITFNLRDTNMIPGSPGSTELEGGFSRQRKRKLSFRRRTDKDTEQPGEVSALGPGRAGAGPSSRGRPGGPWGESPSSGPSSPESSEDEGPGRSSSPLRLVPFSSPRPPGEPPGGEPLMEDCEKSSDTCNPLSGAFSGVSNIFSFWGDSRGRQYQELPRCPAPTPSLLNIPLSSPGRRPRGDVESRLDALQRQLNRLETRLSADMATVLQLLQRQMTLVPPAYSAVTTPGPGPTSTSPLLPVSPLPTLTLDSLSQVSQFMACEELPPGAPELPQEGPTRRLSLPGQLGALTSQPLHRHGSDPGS

| Structure (SMILES) | IC50 [2] | IC50 [1] | further results |
| --- | --- | --- | --- |
| CCN(CC)C(=O)C1CCCN(C(=O)CC2CCN(Cc3ccn(-c4ccc(C(F)(F)F)cc4)c3)CC2)C1 (stereo not given) | 37 nM | 16000 nM |  |
| O=C(CC1CCN(Cc2ccn(-c3ccc(C(F)(F)F)cc3)c2)CC1)NC(c1ccccc1)c1ccccn1 (stereo not given) | 41 nM | 2300 nM |  |
| O=C(NC1CCN(Cc2ccn(-c3ccc(C(F)(F)F)cc3)c2)CC1)NC(c1ccccc1)c1ccccc1 | 39 nM | 3800 nM | pKa [3]: 9.2 |
| O=C(CC1CCN(Cc2ccc(-c3ccc(Cl)cc3)o2)CC1)NCC(O)C(F)(F)F (stereo not given) | 815 nM | 1020 nM |  |
| CC(NC(=O)CC1CCN(Cc2ccn(-c3ccc(C(F)(F)F)cc3)c2)CC1)c1ccc(=O)[nH]c1 (stereo not given) | 67 nM | > 31600 nM |  |
| O=C(CC1CCN(Cc2ccn(-c3ccc(C(F)(F)F)cc3)c2)CC1)N1CCN(C(=O)N2CCCC2)CC1 | 417 nM | 14000 nM |  |
| CN(CCC(=O)N1CCCC1)C(=O)CC1CCN(Cc2ccn(-c3ccc(C(F)(F)F)cc3)c2)CC1 | 142 nM |  |  |
| O=C(NCc1c(O)cc(Cl)cc1Cl)C1CCN(Cc2ccn(-c3ccc(C(F)(F)F)cc3)c2)CC1 | 144 nM |  |  |
| O=C(NCCc1ccccn1)C1CCN(Cc2ccn(-c3ccc(C(F)(F)F)cc3)c2)CC1 | 339 nM | 10000 nM |  |
| Cn1cccc1CNC(=O)CC1CCN(Cc2ccn(-c3ccc(C(F)(F)F)cc3)c2)CC1 | 313 nM |  |  |
| O=C(CC1CCN(Cc2ccn(-c3ccc(C(F)(F)F)cc3)c2)CC1)N1CCCC(C(=O)N2CCCC2)C1 (stereo not given) | 71 nM | 31000 nM |  |
| O=C(NCc1ccc(O)cc1Cl)C1CCN(Cc2ccn(-c3ccc(C(F)(F)F)cc3)c2)CC1 | 30 nM |  |  |
| O=C(CC1CCN(Cc2ccc(-c3ccc(Cl)cc3)o2)CC1)N1CCCC(CO)C1 (stereo not given) | 597 nM | 2340 nM |  |
| O=C(NCc1ccc(Cl)cc1Cl)C1CCN(Cc2ccn(-c3ccc(C(F)(F)F)cn3)c2)CC1 | 444 nM |  | pKa [3]: 8.3; IC50 [5]: 3500 nM |
| COCC(O)CN(Cc1ccc(F)cc1)C(=O)CC1CCN(Cc2ccc(-c3ccc(Cl)cc3)o2)CC1 (stereo not given) | 150 nM | 1090 nM |  |
| O=C(NCC1(O)CCCCC1)C1CCN(Cc2ccn(-c3ccc(C(F)(F)F)cc3)c2)CC1 | 40 nM | 11700 nM |  |
| O=C(CN1CCN(Cc2ccn(-c3ccc(C(F)(F)F)cn3)c2)CC1)NC(c1ccc(F)cc1)c1ccc(F)cc1 | 55 nM | 800 nM | pKa [3]: 6.5 |
| Cc1nccn1CC(NC(=O)CC1CCN(Cc2ccn(-c3ccc(C(F)(F)F)cc3)c2)CC1)c1ccccc1 (stereo not given) | 65 nM | 26600 nM |  |
| O=C(C1CCCCN1C(=O)CC1CCN(Cc2ccn(-c3ccc(C(F)(F)F)cc3)c2)CC1)N1CCCC1 (stereo not given) | 66 nM |  |  |
| O=C(CC1CCN(Cc2ccn(-c3ccc(C(F)(F)F)cc3)c2)CC1)N1CCOC(C(=O)N2CCCC2)C1 (stereo not given) | 173 nM |  |  |

Stronger by IC50 [2], values ahead:

| IC50 [2] | Structure (SMILES) | IC50 [1] | further results |
| --- | --- | --- | --- |
| 4 nM | O=C(CC1CCN(Cc2ccn(-c3ccc(C(F)(F)F)cc3)c2)CC1)N(CCCO)Cc1ccc(F)cc1 | 630 nM |  |
| 17 nM | O=C(CC1CCN(Cc2ccn(-c3ccc(C(F)(F)F)cc3)c2)CC1)NC(c1ccncc1)c1ccc(Cl)cc1 (stereo not given) |  |  |
| 17 nM | O=C(CC1CCN(Cc2ccn(-c3ccc(C(F)(F)F)cc3)c2)CC1)NC(c1ccccc1)c1cnc[nH]1 (stereo not given) | 11400 nM |  |
| 1 nM | CCCCC(NC(=O)CC1CCN(Cc2ccn(-c3ccc(C(F)(F)F)cc3)c2)CC1)c1ccc(=O)[nH]c1 (stereo not given) |  | IC50 [4]: 19 nM |
| 13 nM | O=C(CC1CCN(Cc2ccn(-c3ccc(C(F)(F)F)cn3)c2)CC1)NC(c1ccc(F)cc1)c1ccc(F)cc1 |  | Activity (Mus musculus): 18.2%; IC50 [4]: 17 nM; pKa [3]: 9.1 |
| 5 nM | CCCCC(NC(=O)CC1CCN(Cc2ccn(-c3ccc(C(F)(F)F)cc3)c2)CC1)c1ccc(OC)nc1 (stereo not given) | 1000 nM |  |
| 2 nM | COc1ccc(C(NC(=O)CC2CCN(Cc3ccn(-c4ccc(C(F)(F)F)cc4)c3)CC2)c2ccc(F)cc2)cn1 (stereo not given) | 1750 nM |  |
| 22 nM | O=C(NCc1ccc(Cl)cc1O)C1CCN(Cc2ccn(-c3ccc(C(F)(F)F)cc3)c2)CC1 | 1550 nM |  |
| 28 nM | O=C(CC1CCN(Cc2ccn(-c3ccc(C(F)(F)F)cc3)c2)CC1)NC(c1ccc(F)cc1)c1cccnc1 (stereo not given) | 2170 nM |  |
| 21 nM | O=C(CC1CCN(Cc2ccn(-c3ccc(C(F)(F)F)cc3)c2)CC1)NC(c1ccc(F)cc1)c1ccc[n+]([O-])c1 (stereo not given) | > 31600 nM |  |
| 2 nM | O=C(CC1CCN(Cc2ccn(-c3ccc(C(F)(F)F)cc3)c2)CC1)NC(c1ccc(F)cc1)c1ccc(=O)[nH]c1 (stereo not given) | > 31600 nM | IC50 [4]: 25 nM |
| 8 nM | O=C(NCc1ccc(Cl)cc1Cl)N1CCN(Cc2ccn(-c3ccc(C(F)(F)F)cc3)c2)CC1 |  | pKa [3]: 6.2; IC50 [5]: 1600 nM |
| 6 nM | O=C(CC1CCN(Cc2ccn(-c3ccc(C(F)(F)F)cc3)c2)CC1)NC(c1ccc(F)cc1)c1c[nH]c(=O)c(Cl)c1 (stereo not given) | > 31600 nM | IC50 [6]: 4600 nM; IC50 [4]: 21 nM; IC50 [7]: > 31600 nM; clearance (Liver microsomes): < 15 µL/min/mg |

Source: ChEMBL document CHEMBL1152349, “Optimization of 2-piperidin-4-yl-acetamides as melanin-concentrating hormone receptor 1 (MCH-R1) antagonists: Designing out hERG inhibition” (Bioorg Med Chem Lett, 2009)
